{
  "source": "patent US5914328A",
  "about": "“Heterocyclic ether compounds useful in controlling neurotransmitter release” (Abbott Laboratories, priority 1995, dated 1999)",
  "key": {"[1]": {"biological_target": "neuronal nicotinic cholinergic channel receptor", "assay": "Binding of [3H]-cytisine to neuronal nicotinic receptors, whole rat brain synaptic membranes", "experimental": "B. Protocol For Determination of Nicotinic Cholinergic Channel Receptor Binding Potencies of Ligands\nBinding of [^3 H]-cytisine ([^3 H]-CYT) to nicotinic receptors was accomplished using crude synaptic membrane preparations from whole rat brain (Pabreza et al., Molecular Pharmacol., 1990, 39:9). Washed membranes were stored at -80° C. prior to use. Frozen aliquots were slowly thawed and resuspended in 20 volumes of buffer (containing: 120 mM NaCl, 5 mM KCl, 2 mM MgCl2, 2 mM CaCl2 and 50 mM Tris-Cl, pH 7.4 @4° C.). After centrifuging at 20,000×g for 15 minutes, the pellets were resuspended in 30 volumes of buffer. Homogenate (containing […]) was added to triplicate tubes containing concentrations of test compound and [^3 H]-CYT (1.25 nM) in a final volume of 500 μL. Samples were incubated for 60 minutes at 4° C., then rapidly filtered through Whatman GF/B filters presoaked in 0.5% polyethylimine using 3×4 mL of ice-cold buffer. The filters are counted in 4 mL of Ecolume® (ICN). […] Alternately, data were expressed as a percentage of the total specific binding."}, "[2]": {"tested_on": "nAChR evoked release of [3H]-dopamine", "assay": "Striatal dopamine release ([3H]-dopamine, superfused rat striatal slices)", "assay_type": "cell-based", "details": "standard 100 nM (-)-nicotine = 1.0", "experimental": "The protocol for this procedure follows below.\nA. Protocol for Determination of Striatal Dopamine Release.\nnAChR evoked release of [ring-2,5,6-^3 H]-dopamine (24.4 Ci/mmol) was measured in superfused rat striatal slices. Striata were dissected from two male Sprague-Dawley rats per experiment and sliced 0.35×0.25 mm by a McIlwain Tissue Chopper (Brinkman Instrument Co., Westbury, N.Y.). After two washes with Krebs-HEPES buffer (137 mM NaCl, 4.7 mM KCl, 1 mM MgSO4, 2.5 mM CaCl2, 1.25 mM NaH2 PO4, 10 mM glucose, 15 mM HEPES-NaOH, pH 7.4, containing 10 μM pargyline and 10 μM ascorbic acid), slices were preincubated for 10 minutes at […] under 95%/5% O2 /CO2. After replacing the buffer, slices were labeled with […] [^3 H]-dopamine for 25 min in Krebs-HEPES at […] Aliquots of slices were placed in 18 superfusion chambers of a Brandel SP2000 superfusion apparatus (Brandel, Gaithersberg, Md.). Following 47 minutes of washout, slices were exposed to agonist at various concentrations for4 minutes. Antagonists or inhibitors, when present were introduced 4 minutes prior to and during agonist exposure. Collected fractions were counted in 5 mL of Ecolume. Tissue was recovered from superfusion chambers, solubilized with 1 mL of Solvable™ (DuPont-NEN) and counted in 15 mL of Ecolume. Fractional release of [^3 H]-dopamine was calculated from radioactivity above baseline as a fraction of total radioactivity."}, "[3]": {"tested_on": "cholinergic ligand-gated channels", "assay": "Cholinergic channel activation in PC12 cells, whole-cell patch-clamp", "assay_type": "cell-based", "details": "whole-cell patch-clamp current", "text": "D. Protocols for the Determination of Cholinergic Channel Activation in PC12 Cells.\nThe cholinergic channel activator properties of Example 9 were investigated in PC12 cells using the whole-cell patch-clamp approach to measure current flow through ligand-gated membrane channels."}, "[4]": {"details": "read-out: Receptor Binding Ki (Table 1)"}, "[5]": {"details": "example concentration 10 μM (*)"}, "[6]": {"details": "read-out: Receptor Binding Ki (Table 2)"}, "[7]": {"details": "example concentration 0.1 μ (***)"}, "[8]": {"details": "example concentration 1 μM (**)"}},
  "note": "Structures can show the parent of a compound that is named as a salt. Where two headings read alike, the source gives them in different places.",
  "data": [
    {"smiles": "Cc1ccc(OCC2CCCN2)cn1", "note": "(stereo not shown) [Example 37, 6methyl-3-(2-(R-pyrrolidinylmethoxy)pyridinedihydrochloride]", "values": [
      {"measurement": "Ki", "setting": "[1]; [4]", "result": 0.5, "unit": "nM"},
      {"measurement": "Dopamine Release relative to Nicotine", "setting": "[2]; [5]", "result": 0.8}
    ]},
    {"smiles": "C[C@@H]1C[C@@H](COc2cccnc2)N(C)C1", "note": "[Example 24, 3-((trans-1,4dimethyl-2(S)-pyrrolidinone)methoxy)pyridine dihydrochloride]", "values": [
      {"measurement": "Ki", "setting": "[1]; [6]", "result": 4.2, "unit": "nM"}
    ]},
    {"smiles": "CN1CC[C@H]1COc1cccnc1", "note": "[Example 10, 3-((1-methyl-2-(S)-azetidinyl)methoxypyridinedihydrochloride]", "values": [
      {"measurement": "Ki", "setting": "[1]; [4]", "result": 0.25, "unit": "nM"},
      {"measurement": "Dopamine Release relative to Nicotine", "setting": "[2]; [5]", "result": 1.0}
    ]},
    {"smiles": "Cc1ccc(OC[C@@H]2CCCN2C)cn1.Cl.Cl", "note": "[Example 19, 6methyl-3-((1-methyl-2-(S)-pyrrolidinyl)methoxy)pyridine dihydrochloride]", "values": [
      {"measurement": "Ki", "setting": "[1]; [4]", "result": 1.47, "unit": "nM"},
      {"measurement": "Dopamine Release relative to Nicotine", "setting": "[2]; [7]", "result": 0.78}
    ]},
    {"smiles": "Cl.Cl.Clc1cncc(OC[C@H]2CCCN2)c1", "note": "[Example 33, 5-chloro-3-(2-(R)-pyrrolidinylmethoxy)pyridine dihydrochloride]", "values": [
      {"measurement": "Dopamine Release relative to Nicotine", "setting": "[2]; [8]", "result": 0.62}
    ]},
    {"smiles": "CN1CCC[C@H]1COc1cccnc1.O=C(O)/C=C/C(=O)O", "note": "[Example 4, 3-((1-methyl-2-(S)-pyrrolidinyl)methoxy)pyridine fumarate]", "values": [
      {"measurement": "Dopamine Release relative to Nicotine", "setting": "[2]; [5]", "result": 1.0}
    ]},
    {"smiles": "Clc1ccc(OC[C@@H]2CCN2)cn1", "note": "[Example 52, 3-(2-(S)-azetidinylmethoxy)-6-chloropyridine dihydrochloride]", "values": [
      {"measurement": "Dopamine Release relative to Nicotine", "setting": "[2]; [5]", "result": 1.0}
    ]},
    {"smiles": "Cc1ccc(OC[C@H]2CCCN2C)cn1", "note": "[Example 36, 6-methyl-3-((1-methyl-2-(R)-pyrrolidinyl)methoxy)pyridine dihydrochloride]", "values": [
      {"measurement": "Ki", "setting": "[1]; [6]", "result": 26, "unit": "nM"}
    ]},
    {"smiles": "c1cnc(OC[C@@H]2CCN2)cn1", "note": "[Example 7]", "values": [
      {"measurement": "Ki", "setting": "[1]; [3H]-cytisine 1.25 nM, rat brain membranes, 4° C., Table 2, read-out: Receptor Binding Ki (Table 2)", "result": 0.44, "unit": "nM"}
    ]},
    {"smiles": "CN1CCC[C@H]1COc1cncc(Cl)c1", "note": "[Example 16, 5chloro-3-((1-methyl-2-(S)-pyrrolidinyl)methoxypyridinedihydrochloride]", "values": [
      {"measurement": "Dopamine Release relative to Nicotine", "setting": "[2]; [8]", "result": 1.0}
    ]},
    {"smiles": "CCN1CCC[C@H]1COc1cccnc1.Cl.Cl", "note": "[Example 38, 3-((1-ethyl-2(S)-pyrrolidinyl)methoxy)pyridine dihydrochloride]", "values": [
      {"measurement": "Dopamine Release relative to Nicotine", "setting": "[2]; [5]", "result": 0.6}
    ]},
    {"smiles": "Cl.Cl.c1cncc(OC[C@@H]2CCN2)c1", "note": "[Example 9, 3-(2-(S)-azetidinylmethoxy)pyridine dihydrochloride]", "values": [
      {"measurement": "cholinergic channel activator properties (in words)", "setting": "[3]", "result": "clear agonist activity"},
      {"measurement": "Dopamine Release relative to Nicotine", "setting": "[2]; [5]", "result": 1.0}
    ]},
    {"smiles": "CN1CCCCC1COc1cccnc1", "note": "(stereo not shown) [Example 26, 3-((1-methyl-2-piperidinyl)methoxy)pyridine oxalate salt]", "values": [
      {"measurement": "Ki", "setting": "[1]; [6]", "result": 76, "unit": "nM"}
    ]},
    {"smiles": "CN1CCC[C@H]1COc1cnc2ccccc2c1.Cl", "note": "[Example 31, 3-(1-methyl-2-(S)-pyrrolidinylmethoxy)quinoline hydrochloride]", "values": [
      {"measurement": "Dopamine Release relative to Nicotine", "setting": "[2]; [5]", "result": 0.15}
    ]},
    {"smiles": "CN1CCC[C@H]1CCOc1cccnc1.Cl.Cl", "note": "[Example 103, 3-(2-(1-methyl-2-(S)-pyrrolidinyl)ethoxy)pyridine dihydrochloride]", "values": [
      {"measurement": "Dopamine Release relative to Nicotine", "setting": "[2]; [5]", "result": 0.3}
    ]},
    {"smiles": "CC(Oc1cccnc1)[C@@H]1CCCN1C", "note": "(stereo partly drawn) [Example 6, 3-(a-methyl-(1-methyl-2-(S)-pyrrolidinyl)methoxy)pyridine hydrochloride]", "values": [
      {"measurement": "Ki", "setting": "[1]; [6]", "result": 6.7, "unit": "nM"}
    ]},
    {"smiles": "Cc1ccc(OC[C@@H]2CCN2C)cn1.Cl.Cl", "note": "[Example 59, 3-((1-methyl-2-(S)-azetidinyl)methoxy)-6-methylpyridine dihydrochloride]", "values": [
      {"measurement": "Dopamine Release relative to Nicotine", "setting": "[2]; [5]", "result": 0.7}
    ]},
    {"smiles": "Cc1ncccc1OC[C@@H]1CCN1", "note": "[Example 29, 2-methyl-3-(2-(S)-azetidinylmethoxy)pyridine dihydrochloride]", "values": [
      {"measurement": "Ki", "setting": "[1]; [6]", "result": 1.3, "unit": "nM"}
    ]},
    {"smiles": "c1cncc(OC[C@@H]2CCCN2)c1", "note": "[Example 14, 3-(2-(S)-pyrrolidinylmethoxypyridine fumarate]", "values": [
      {"measurement": "Ki", "setting": "[1]; [4]", "result": 0.14, "unit": "nM"},
      {"measurement": "Dopamine Release relative to Nicotine", "setting": "[2]; [8]", "result": 1.0}
    ]},
    {"smiles": "CN1CCC[C@@H]1COc1cccnc1.Cl", "note": "[Example 1, 3-((1-methyl-2-(R)-pyrrolidinyl)methoxy)pyridine hydrochloride]", "values": [
      {"measurement": "Dopamine Release relative to Nicotine", "setting": "[2]; [5]", "result": 0.08}
    ]},
    {"smiles": "Cc1ccc(OC[C@@H]2CCCN2)cn1.Cl.Cl", "note": "[Example 18, 6-methyl-3-(2-(S)-pyrrolidinylmethoxy)pyridine dihydrochloride]", "values": [
      {"measurement": "Dopamine Release relative to Nicotine", "setting": "[2]; [7]", "result": 1.0}
    ]},
    {"smiles": "Cc1ccncc1OC[C@@H]1CCCN1C.Cl.Cl", "note": "[Example 46, 4-methyl-3-((1-methyl-2-(S)-pyrrolidinyl)methoxy)pyridine dihydrochloride]", "values": [
      {"measurement": "Dopamine Release relative to Nicotine", "setting": "[2]; [5]", "result": 0.85}
    ]},
    {"smiles": "CN1CC[C@H]1COc1cnccn1.Cl.Cl", "note": "[Example 8, 2-((1-methyl-2-(S)-azetidinyl)methoxy)pyrazine dihydrochloride]", "values": [
      {"measurement": "Dopamine Release relative to Nicotine", "setting": "[2]; [5]", "result": 0.55}
    ]}
  ]
}
